Source: US7608620B2, “LPAAT-β inhibitors and uses thereof” (Cell Therapeutics, Inc., priority 2000, dated 2009)

Columns and labels:
B16 melanoma cells = experiment: Growth of B16 melanoma cells in syngeneic mice; type: in vivo; conditions: FIG. 6C
LPAAT-β = target: T1, LPAAT-β (Homo sapiens, UniProt O15120); experiment: Secondary assay of LPAAT-β activity (radiometric/TLC); type: biochemical; conditions: FIG. 9
T1 construct: the full-length human LPAAT-β cDNA was amplified by PCR; made in house; host or cells: Sf9 insect cells (baculovirus, pFastBac HTc); membrane fraction
T1 sequence (O15120 24-278): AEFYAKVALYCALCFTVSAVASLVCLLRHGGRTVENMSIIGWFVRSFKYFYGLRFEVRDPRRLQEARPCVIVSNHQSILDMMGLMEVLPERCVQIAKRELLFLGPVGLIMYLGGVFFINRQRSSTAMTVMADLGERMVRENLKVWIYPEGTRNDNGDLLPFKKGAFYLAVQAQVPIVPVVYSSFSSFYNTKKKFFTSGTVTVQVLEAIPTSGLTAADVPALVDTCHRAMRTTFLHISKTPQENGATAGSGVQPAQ
Experimental: The radiometric assay was carried out in Sf9 cell membrane overexpressing LPAAT-β resuspended in HEPES-saline buffer, pH 7.5, 1 mg/ml BSA, 1 mM EDTA and 200 μM [^14C]18:1-CoA and 200 μM sn-1-18:1 lysoPA. The samples were incubated 7 min at 37° C. extracted into organic solvent (CHCl3/CH3OH/HCl at 33/66/1), before loading onto TLC plates. A more detailed protocol for the radiometric assay is described below:
Specifically, this LPAAT assay is a modification of the acyltransferase assay published previously (Hollenback and Glomset, Biochemistry 37: 363-376 (1999)).
1. The basic assay, in a total vol of 50 μl, employs a solution of substrates and the protein sample. Total assay volume, as well as the volume of each solution, can be changed to fit an experiment. In addition, other compounds, ex inhibitors and activators, can be included in the assay as well.
2. […]
7. […] To be able to convert pixel volume (determined by the Storm phosphor imager, see step 8b) into cpm, cpm standard curve must be generated on the plate. ^14C-labeled oleate dilutions in chloroform are made for this purpose. Four stocks (50 cpm/μl to 800 cpm/μl) are made and 2 μl of a different concentration are spotted in each corner of the plate (where previously there was no radioactivity). • d. […]
The PA and lysoPA bands are easily detected in this system because of the carrier added in step 5. […]
8. Quantitating activity: • a. […]

[1] = tested on: human DU145 prostate tumor cells; experiment: Human DU145 prostate tumor xenograft in nude mice; type: in vivo; conditions: xenograft study, FIG. 6E
[2] = tested on: human breast tumor MCF-7 cells; experiment: Proliferation of MCF-7 cells by CyQUANT analysis; type: cell-based; conditions: FIG. 5E
Experimental: To determine whether administration of LPAAT-β inhibitor would have any effect on cell proliferation in tissue culture, proliferation of human breast tumor MCF-7 cells in microplates were measured by CyQUANT analysis using a green-fluorescent nucleic acid stain optimized to produce a linear detection range from 50 to 50,000 cells in 200 μl volume (Molecular Probes, Eugene, Oreg.) in the presence of various concentrations of a LPAAT-β inhibitor.

LPAAT-α = target: T2, LPAAT-α (Homo sapiens, UniProt Q99943); experiment: Secondary assay, effect on LPAAT-α activity; type: biochemical; conditions: FIG. 9
T2 sequence (Q99943 27-283): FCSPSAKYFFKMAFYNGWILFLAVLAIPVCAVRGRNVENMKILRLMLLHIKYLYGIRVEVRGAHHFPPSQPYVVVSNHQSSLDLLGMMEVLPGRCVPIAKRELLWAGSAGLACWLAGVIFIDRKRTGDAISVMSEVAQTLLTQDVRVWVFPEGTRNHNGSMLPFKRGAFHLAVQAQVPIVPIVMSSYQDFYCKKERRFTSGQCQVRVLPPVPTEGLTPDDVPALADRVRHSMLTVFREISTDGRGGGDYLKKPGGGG

[3] = Tolerability in nude and immunocompetent mice; type: in vivo
Source text: In summary, endogenous LPAAT-β expression is detected at high levels by both in situ hybridization and immunohistochemistry in particular tumor tissues and often in surrounding stroma and is associated with tumor progression. LPAAT-β overexpression appears to contribute reversibly to transformation and tumorigenesis of immortalized rodent cells and may also contribute to increased transformation of weakly tumorigenic human cell lines. Compounds selected from screening of LPAAT-β inhibitors from different structural families can inhibit proliferation of numerous tumor cell lines in vitro. […] This compound can inhibit the growth of numerous tumor models in mice and may be a tumor-static compound.

[4] = tested on: NIH/3T3 cells overexpressing the oncogene Ki-ras; experiment: Tumor growth of NIH/3T3 cells overexpressing Ki-ras injected subcutaneously into nude mice; type: in vivo; conditions: 10 mg/Kg to 100 mg/Kg intra-peritoneally on day 1, 2, 3 and 4; tumors measured on day 8; FIG. 6B
Experimental: To determine whether administration of LPAAT-β inhibitor would have any effect on tumor growth in mice, 5×10^5 NIH/3T3 cells overexpressing the oncogene Ki-ras were injected subcutaneously into nude mice. An LPAAT-β inhibitor 6-chloro-N,N′-diphenyl-[1,3,5]triazine-2,4-diamine, at concentrations that range from 10 mg/Kg to 100 mg/Kg of mouse body weight was injected intra-peritoneally on day 1, 2, 3 and 4 after injection of tumor cells. The size of tumors was then measured on day 8.

Lewis Lung tumor cells = experiment: Growth of Lewis Lung tumor cells in syngeneic mice; type: in vivo; conditions: FIG. 6D

Clc1nc(Nc2ccccc2)nc(Nc2ccccc2)n1 [6-chloro-N,N′-diphenyl-[1,3,5]triazine-2,4-diamine]
growth of B16 melanoma cells (B16 melanoma cells): decrease the growth | inhibition of LPAAT-β activity (LPAAT-β): concentration-dependent inhibition | growth of human DU145 prostate tumor cells [1]: decrease the growth | concentration effective in blocking the proliferation of MCF-7 cells [2]: > 20 µM | effect on LPAAT-α activity (LPAAT-α): minimal effect | gross pathology ([3]; at least 100 mg/kg/day for 4-5 days): no discernable gross pathology | tolerated dose ([3]; nude and immunocompetent mice, mouse, in vivo): at least 100 mg/kg/day | volume of the tumors in mice [4]: decreased as the concentration of the LPAAT-β inhibitor increases | growth of Lewis Lung tumor cells (Lewis Lung tumor cells): decrease the growth
